Measurements: BindingDB's records for doi:10.1021/acs.jmedchem.9b02176 (Glaxosmithkline, 2020)
pEC50: −log10 of the molar value.

Legend:
[1] = Inhibition of NS5A in HCV genotype 2a con infected in […] cells assessed as reduction in viral replication incubated for 48 hrs by luciferase reporter gene assay
[2] = Inhibition of NS5A in HCV genotype 1a infected in […] cells assessed as reduction in viral replication incubated for 48 hrs by luciferase reporter gene assay
[3] = Inhibition of NS5A in HCV genotype 1b infected in […] cells assessed as reduction in viral replication incubated for 48 hrs by luciferase reporter gene assay
[4] = Inhibition of NS5A in patient-derived HCV genotype 3a infected in […] cells assessed as reduction in viral replication incubated for 48 hrs by luciferase reporter gene assay
[5] = Inhibition of NS5A in patient-derived HCV genotype 2a infected in […] cells assessed as reduction in viral replication incubated for 48 hrs by luciferase reporter gene assay
[6] = Inhibition of NS5A in HCV genotype 3a con infected in […] cells assessed as reduction in viral replication incubated for 48 hrs by luciferase reporter gene assay

Row | SMILES | pEC50 [1] | pEC50 [2] | pEC50 [3] | pEC50 [4] | pEC50 [5] | pEC50 [6]
1 | COC(=O)N[C@H](C(=O)N1CCC[C@H]1c1ncc(-c2ccc3c(c2)-c2ccc(-c4cnc([C@@H]5CCCN5C(=O)[C@@H](c5ccccc5)N(C)C)[nH]4)cc2-3)[nH]1)C(C)C | 8.83 | 10.28 | 10.85 | – | – | –
2 | COC(=O)N[C@H](C(=O)N1[C@H](c2ncc(-c3ccc4c(c3)-c3ccc(-c5cnc([C@@H]6C[C@@H]7CCC[C@@H]7N6C(=O)[C@@H](NC(=O)OC)[C@@H](C)OC)[nH]5)cc3-4)[nH]2)C[C@@H]2CCC[C@@H]21)[C@@H](C)O | 9.73 | 10.85 | 11.10 | 11.22 | 8.99 | –
3 | COC(=O)N[C@@H](CO)C(=O)N1[C@H](c2ncc(-c3ccc4c(c3)-c3ccc(-c5cnc([C@@H]6C[C@@H]7CCC[C@@H]7N6C(=O)[C@H](CO)NC(=O)OC)[nH]5)cc3-4)[nH]2)C[C@@H]2CCC[C@@H]21 | 8.05 | 10.26 | 11.05 | – | – | –
4 | COC(=O)N[C@H](C(=O)N1CCC[C@H]1c1ncc(-c2ccc3c(c2)-c2ccc(-c4cnc([C@@H]5CCCN5C(=O)[C@@H](NC(=O)OC)C(C)C)[nH]4)cc2-3)[nH]1)C(C)C | 7.49 | 10.36 | 11.10 | 10.74 | 7.31 | > 10.60
5 | COC(=O)N[C@H](C(=O)N1[C@H](c2ncc(-c3ccc4c(c3)Cc3cc(-c5cnc([C@@H]6C[C@@H]7CCC[C@@H]7N6C(=O)[C@@H](NC(=O)OC)[C@@H](C)OC)[nH]5)ccc3-4)[nH]2)C[C@@H]2CCC[C@@H]21)[C@@H](C)OC | – | 10.39 | 10.66 | – | – | –
6 | COC(=O)N[C@H](C(=O)N1[C@H](c2ncc(-c3ccc4c(c3)-c3ccc(-c5cnc([C@@H]6C[C@@H]7CCC[C@@H]7N6C(=O)[C@@H](NC(=O)OC)[C@@H](C)OC)[nH]5)cc3-4)[nH]2)C[C@@H]2CCC[C@@H]21)[C@@H](C)OC | 9.94 | 11.00 | 11.10 | 11.52 | 9.18 | 10.70
7 | COC(=O)N[C@H](C(=O)N1[C@H](c2ncc(-c3ccc4c(c3)-c3ccc(-c5cnc([C@@H]6C[C@@H]7CCC[C@@H]7N6C(=O)[C@@H](NC(=O)OC)[C@H](C)O)[nH]5)cc3-4)[nH]2)C[C@@H]2CCC[C@@H]21)[C@H](C)O | 7.45 | 9.52 | 11.00 | – | – | –
8 | COC(=O)N[C@H](C(=O)N1[C@H](c2ncc(-c3ccc4c(c3)-c3ccc(-c5cnc([C@@H]6C[C@@H]7CCC[C@@H]7N6C(=O)[C@@H](NC(=O)OC)[C@@H](C)O)[nH]5)cc3-4)[nH]2)C[C@@H]2CCC[C@@H]21)C(C)C | 9.01 | 10.89 | 11.22 | – | – | –
9 | COC(=O)N[C@H](C(=O)N1[C@H](c2ncc(-c3ccc4c(c3)-c3ccc(-c5cnc([C@@H]6C[C@@H]7CCCC[C@@H]7N6C(=O)[C@@H](NC(=O)OC)C(C)C)[nH]5)cc3-4)[nH]2)C[C@@H]2CCCC[C@@H]21)C(C)C | 8.48 | 10.70 | – | – | – | –
10 | COC(=O)N[C@H](C(=O)N1CCC[C@H]1c1ncc(-c2ccc3c(c2)-c2ccc(-c4cnc([C@@H]5C[C@@H]6CCCC[C@@H]6N5C(=O)[C@@H](NC(=O)OC)C(C)C)[nH]4)cc2-3)[nH]1)C(C)C | 7.91 | 11.05 | – | – | – | –
11 | CN(C)[C@@H](C(=O)N1CCC[C@H]1c1ncc(-c2ccc3c(c2)-c2ccc(-c4cnc([C@@H]5CCCN5C(=O)[C@@H](c5ccccc5)N(C)C)[nH]4)cc2-3)[nH]1)c1ccccc1 | 9.49 | 9.61 | 10.09 | – | – | –
12 | COC(=O)N[C@H](C(=O)N1[C@H](c2ncc(-c3ccc4c(c3)-c3ccc(-c5cnc([C@@H]6C[C@@H]7CCC[C@@H]7N6C(=O)[C@@H](NC(=O)OC)C(C)C)[nH]5)cc3-4)[nH]2)C[C@@H]2CCC[C@@H]21)C(C)C | 8.34 | 11.00 | – | – | – | –
13 | COC(=O)N[C@H](C(=O)N1[C@H](c2ncc(-c3ccc4c(c3)Cc3ccc(-c5cnc([C@@H]6C[C@@H]7CCC[C@@H]7N6C(=O)[C@@H](NC(=O)OC)[C@@H](C)OC)[nH]5)cc3C4)[nH]2)C[C@@H]2CCC[C@@H]21)[C@@H](C)OC | – | 10.52 | 10.70 | – | – | –
14 | COC(=O)N[C@H](C(=O)N1[C@H](c2ncc(-c3ccc4c5ccc(-c6cnc([C@@H]7C[C@@H]8CCC[C@@H]8N7C(=O)[C@@H](NC(=O)OC)[C@@H](C)OC)[nH]6)cc5n(C)c4c3)[nH]2)C[C@@H]2CCC[C@@H]21)[C@@H](C)OC | – | 9.83 | 10.55 | – | – | –
15 | COC(=O)N[C@H](C(=O)N1[C@H](c2ncc(-c3ccc4c(c3)S(=O)(=O)c3cc(-c5cnc([C@@H]6C[C@@H]7CCC[C@@H]7N6C(=O)[C@@H](NC(=O)OC)[C@@H](C)OC)[nH]5)ccc3-4)[nH]2)C[C@@H]2CCC[C@@H]21)[C@@H](C)OC | – | 10.09 | 10.55 | – | – | –
16 | COC(=O)N[C@H](C(=O)N1[C@H](c2ncc(-c3ccc4c(c3)Oc3ccc(-c5cnc([C@@H]6C[C@@H]7CCC[C@@H]7N6C(=O)[C@@H](NC(=O)OC)[C@@H](C)OC)[nH]5)cc3O4)[nH]2)C[C@@H]2CCC[C@@H]21)[C@@H](C)OC | – | 10.92 | 11.15 | – | – | –
17 | COC(=O)N[C@H](C(=O)N1[C@H](c2ncc(-c3ccc4c(c3)-c3ccc(-c5cnc([C@@H]6C[C@@H]7CCC[C@@H]7N6C(=O)[C@@H](NC(=O)OC)[C@@H](C)O)[nH]5)cc3-4)[nH]2)C[C@@H]2CCC[C@@H]21)[C@@H](C)O | 9.85 | 10.96 | – | 11.30 | 8.97 | 10.74
18 | COC(=O)N[C@H](C(=O)N1[C@H](c2ncc(-c3ccc4c(c3)C(F)(F)c3cc(-c5cnc([C@@H]6C[C@@H]7CCC[C@@H]7N6C(=O)[C@@H](NC(=O)OC)[C@@H](C)OC)[nH]5)ccc3-4)[nH]2)C[C@@H]2CCC[C@@H]21)[C@@H](C)OC | – | 10.54 | 10.77 | – | – | –
19 | COC(=O)N[C@H](C(=O)N1[C@H](c2ncc(-c3ccc4c(c3)CCc3cc(-c5cnc([C@@H]6C[C@@H]7CCC[C@@H]7N6C(=O)[C@@H](NC(=O)OC)[C@@H](C)OC)[nH]5)ccc3-4)[nH]2)C[C@@H]2CCC[C@@H]21)[C@@H](C)OC | – | 10.77 | 10.82 | – | – | –
20 | COC(=O)N[C@@H](CO)C(=O)N1[C@H](c2ncc(-c3ccc4c(c3)-c3ccc(-c5cnc([C@@H]6C[C@@H]7CCC[C@@H]7N6C(=O)[C@@H](NC(=O)OC)C(C)C)[nH]5)cc3-4)[nH]2)C[C@@H]2CCC[C@@H]21 | 8.36 | 10.70 | – | – | – | –
21 | COC(=O)N[C@H](C(=O)N1CCC[C@H]1c1nc(-c2ccc(-c3ccc(-c4c[nH]c([C@@H]5CCCN5C(=O)[C@@H](NC(=O)OC)C(C)C)n4)cc3)cc2)c[nH]1)C(C)C [BMS-790052] | 7.28 | 10.49 | 11.10 | 9.94 | 7.31 | 9.39
